{"source": "ChEMBL document CHEMBL5335775", "about": "“Bioisosteric replacement of 1H-1,2,3-triazole with 1H-tetrazole ring enhances anti-leukemic activity of (5-benzylthiazol-2-yl)benzamides” (Eur J Med Chem, 2023)", "key": {"[1]": {"system": "UACC-257", "assay": "Anticancer activity against human UACC-257 cells assessed as cell growth at 10^-5 M incubated for 48 hrs by SRB assay relative to control", "assay_type": "functional", "conditions": "UACC-257, 48 h, dose 1 10^-5M, read-out: Activity"}, "[2]": {"system": "K562", "assay": "Induction of DNA damage in human K562 cells assessed as tail DNA level at 700 nM incubated for 24 hrs by comet assay (reference value: 0.5 to 0.6 %)", "assay_type": "functional"}, "[3]": {"system": "SW-620", "assay": "Inhibition of cell growth in human SW-620 cells incubated for 48 hrs by SRB assay", "assay_type": "functional, cell-based", "conditions": "SW-620, 48 h"}, "[4]": {"system": "NCI-H522", "assay": "Anticancer activity against human NCI-H522 cells assessed as cell growth at 10^-5 M incubated for 48 hrs by SRB assay relative to control", "assay_type": "functional", "conditions": "NCI-H522, 48 h, dose 1 10^-5M, read-out: Activity"}, "[5]": {"system": "HCT-15", "assay": "Inhibition of cell growth in human HCT-15 cells incubated for 48 hrs by SRB assay", "assay_type": "functional, cell-based", "conditions": "HCT-15, 48 h"}, "[6]": {"system": "M14", "assay": "Anticancer activity against human M14 cells assessed as cell growth at 10^-5 M incubated for 48 hrs by SRB assay relative to control", "assay_type": "functional", "conditions": "M14, 48 h, dose 1 10^-5M, read-out: Activity"}, "[7]": {"system": "NCI-H460", "assay": "Anticancer activity against human NCI-H460 cells assessed as cell growth at 10^-5 M incubated for 48 hrs by SRB assay relative to control", "assay_type": "functional", "conditions": "NCI-H460, 48 h, dose 1 10^-5M, read-out: Activity"}, "[8]": {"system": "K562", "assay": "Induction of pro-apoptotic morphological changes in human K562 cells assessed as nucleus fragmentation at 700 nM incubated for 24 hrs by Hoescht-33342 staining based analysis", "assay_type": "functional, cell-based"}, "[9]": {"system": "K562", "assay": "Induction of pro-apoptotic morphological changes in human K562 cells assessed as cell shrinkage at 700 nM incubated for 24 hrs by Hoescht-33342 staining based analysis", "assay_type": "functional"}, "[10]": {"system": "K562", "assay": "Anticancer activity against human K562 cells assessed as cell growth at 10^-5 M incubated for 48 hrs by SRB assay relative to control", "assay_type": "functional", "conditions": "K562, 48 h, dose 1 10^-5M, read-out: Activity"}, "[11]": {"system": "K562", "assay": "Inhibition of cell growth in human K562 cells incubated for 48 hrs by SRB assay", "assay_type": "functional, cell-based", "conditions": "K562, 48 h"}, "[12]": {"system": "UACC-62", "assay": "Inhibition of cell growth in human UACC-62 cells incubated for 48 hrs by SRB assay", "assay_type": "functional, cell-based", "conditions": "UACC-62, 48 h"}, "[13]": {"system": "MCF7", "assay": "Anticancer activity against human MCF7 cells assessed as cell growth at 10^-5 M incubated for 48 hrs by SRB assay relative to control", "assay_type": "functional", "conditions": "MCF7, 48 h, dose 1 10^-5M, read-out: Activity"}, "[14]": {"assay": "Antiproliferative activity against J774.2 cells assessed as inhibition of cell proliferation measured after 72 hrs by MTT assay", "assay_type": "toxicity, cell-based", "conditions": "mouse"}, "[15]": {"system": "K562", "assay": "Induction of pro-apoptotic morphological changes in human K562 cells assessed as formation of cytoplasmic blebs at 700 nM incubated for 24 hrs by Hoescht-33342 staining based analysis", "assay_type": "functional, cell-based"}, "[16]": {"assay": "Selectivity index, ratio of IC50 for […] to IC50 for human K562 cells", "assay_type": "functional"}, "[17]": {"assay": "Antiproliferative activity against human HaCaT cells assessed as inhibition of cell proliferation measured after 72 hrs by MTT assay", "assay_type": "toxicity, cell-based"}, "[18]": {"system": "SK-MEL-5", "assay": "Anticancer activity against human SK-MEL-5 cells assessed as cell growth at 10^-5 M incubated for 48 hrs by SRB assay relative to control", "assay_type": "functional", "conditions": "SK-MEL-5, 48 h, dose 1 10^-5M, read-out: Activity"}, "[19]": {"system": "T47D", "assay": "Anticancer activity against human T47D cells assessed as cell growth at 10^-5 M incubated for 48 hrs by SRB assay relative to control", "assay_type": "functional", "conditions": "dose 1 10^-5M, read-out: Activity"}, "[20]": {"assay": "Antiproliferative activity against NIH3T3 cells assessed as inhibition of cell proliferation measured after 72 hrs by MTT assay", "assay_type": "toxicity, cell-based", "conditions": "mouse"}, "[21]": {"system": "K562", "assay": "Induction of DNA damage in human K562 cells assessed as tail DNA level at 70 nM incubated for 24 hrs by comet assay (reference value: 0.5 to 0.6 %)", "assay_type": "functional"}, "[22]": {"system": "UACC-62", "assay": "Anticancer activity against human UACC-62 cells assessed as cell growth at 10^-5 M incubated for 48 hrs by SRB assay relative to control", "assay_type": "functional", "conditions": "UACC-62, 48 h, dose 1 10^-5M, read-out: Activity"}, "[23]": {"system": "T47D", "assay": "Inhibition of cell growth in human T47D cells incubated for 48 hrs by SRB assay", "assay_type": "functional, cell-based"}, "[24]": {"system": "K562", "assay": "Induction of DNA damage in human K562 cells assessed as olive tail moment level at 700 nM incubated for 24 hrs by comet assay (reference value: 0.2)", "assay_type": "functional"}, "[25]": {"system": "LOX IMVI", "assay": "Anticancer activity against human LOX IMVI cells assessed as cell growth at 10^-5 M incubated for 48 hrs by SRB assay relative to control", "assay_type": "functional", "conditions": "dose 1 10^-5M, read-out: Activity"}, "[26]": {"system": "K562", "assay": "Induction of pro-apoptotic morphological changes in human K562 cells at 70 nM incubated for 24 hrs by Hoescht-33342 staining based analysis", "assay_type": "functional, cell-based"}, "[27]": {"system": "NCI-H460", "assay": "Inhibition of cell growth in human NCI-H460 cells incubated for 48 hrs by SRB assay", "assay_type": "functional, cell-based", "conditions": "NCI-H460, 48 h"}, "[28]": {"system": "K562", "assay": "Induction of DNA damage in human K562 cells assessed as olive tail moment level at 70 nM incubated for 24 hrs by comet assay (reference value: 0.2)", "assay_type": "functional"}, "[29]": {"system": "K562", "assay": "Antiproliferative activity against human K562 cells assessed as inhibition of cell proliferation measured after 72 hrs by MTT assay", "assay_type": "functional, cell-based", "conditions": "K562, 72 h"}, "[30]": {"system": "K562", "assay": "Induction of DNA damage in human K562 cells assessed as fold increase in tail DNA level at 70 to 700 nM incubated for 24 hrs by comet assay relative to control", "assay_type": "functional", "conditions": "dose 70-700 nM"}, "[31]": {"system": "K562", "assay": "Induction of DNA damage in human K562 cells assessed as fold increase in olive tail moment at 70 to 700 nM incubated for 24 hrs by comet assay relative to control", "assay_type": "functional", "conditions": "dose 70-700 nM"}, "[32]": {"system": "SF-295", "assay": "Anticancer activity against human SF-295 cells assessed as cell growth at 10^-5 M incubated for 48 hrs by SRB assay relative to control", "assay_type": "functional", "conditions": "SF-295, 48 h, dose 1 10^-5M, read-out: Activity"}, "[33]": {"system": "K562", "assay": "Induction of pro-apoptotic morphological changes in human K562 cells assessed as formation of apoptotic bodies at 700 nM incubated for 24 hrs by Hoescht-33342 staining based analysis", "assay_type": "functional, cell-based"}, "[34]": {"system": "CAKI-1", "assay": "Inhibition of cell growth in human CAKI-1 cells incubated for 48 hrs by SRB assay", "assay_type": "functional, cell-based", "conditions": "CAKI-1, 48 h"}, "[35]": {"system": "LOX IMVI", "assay": "Inhibition of cell growth in human LOX IMVI cells incubated for 48 hrs by SRB assay", "assay_type": "functional, cell-based"}, "[36]": {"system": "KM12", "assay": "Inhibition of cell growth in human KM12 cells incubated for 48 hrs by SRB assay", "assay_type": "functional, cell-based", "conditions": "KM12, 48 h"}, "[37]": {"system": "M14", "assay": "Inhibition of cell growth in human M14 cells incubated for 48 hrs by SRB assay", "assay_type": "functional, cell-based", "conditions": "M14, 48 h"}}, "note": "Active and inactive are the calls of the source. The calls are words filed in the database; no cut-off is given here."}
{"smiles": "O=C(Nc1ncc(Cc2ccc(F)cc2)s1)c1ccc(-n2cnnn2)cc1", "values": [{"measurement": "growth at 10 µM", "setting": "[1]", "result": 32, "unit": "%"}, {"measurement": "Activity", "setting": "[2]", "result": 5.1, "unit": "%"}, {"measurement": "IC50", "setting": "[3]", "result": 0.118, "unit": "µM"}, {"measurement": "growth at 10 µM", "setting": "[4]", "result": 36.5, "unit": "%"}, {"measurement": "IC50", "setting": "[5]", "result": 0.347, "unit": "µM"}, {"measurement": "growth at 10 µM", "setting": "[6]", "result": 34.3, "unit": "%"}, {"measurement": "growth at 10 µM", "setting": "[7]", "result": 25.5, "unit": "%"}, {"measurement": "Activity", "setting": "[8]", "result": "Active"}, {"measurement": "Activity", "setting": "[9]", "result": "Active"}, {"measurement": "growth at 10 µM", "setting": "[10]", "result": 23.2, "unit": "%"}, {"measurement": "IC50", "setting": "[11]", "result": 0.0564, "unit": "µM"}, {"measurement": "IC50", "setting": "[12]", "result": 0.0569, "unit": "µM"}, {"measurement": "growth at 10 µM", "setting": "[13]", "result": 34.4, "unit": "%"}, {"measurement": "IC50 at 72 h", "setting": "[14]", "result": 70.7, "unit": "µM"}, {"measurement": "Activity", "setting": "[15]", "result": "Active"}, {"measurement": "Ratio IC50", "setting": "[16]", "result": 101}, {"measurement": "IC50 at 72 h", "setting": "[17]", "result": "> 100", "unit": "µM"}, {"measurement": "growth at 10 µM", "setting": "[18]", "result": 10.6, "unit": "%"}, {"measurement": "growth at 10 µM", "setting": "[19]", "result": 23.2, "unit": "%"}, {"measurement": "IC50 at 72 h", "setting": "[20]", "result": "> 100", "unit": "µM"}, {"measurement": "Activity", "setting": "[21]", "result": 1.1, "unit": "%"}, {"measurement": "growth at 10 µM", "setting": "[22]", "result": 19.2, "unit": "%"}, {"measurement": "IC50", "setting": "[23]", "result": 0.896, "unit": "µM"}, {"measurement": "Activity", "setting": "[24]", "result": 1.4}, {"measurement": "growth at 10 µM", "setting": "[25]", "result": 26.3, "unit": "%"}, {"measurement": "Activity", "setting": "[26]", "result": "inactive"}, {"measurement": "IC50", "setting": "[27]", "result": 0.993, "unit": "µM"}, {"measurement": "Activity", "setting": "[28]", "result": 0.5}, {"measurement": "IC50", "setting": "[29]", "result": 0.7, "unit": "µM"}, {"measurement": "fold change (FC)", "setting": "[30]", "result": 2}, {"measurement": "fold change (FC)", "setting": "[31]", "result": 2}, {"measurement": "growth at 10 µM", "setting": "[32]", "result": 25.9, "unit": "%"}, {"measurement": "Activity", "setting": "[33]", "result": "Active"}, {"measurement": "IC50", "setting": "[34]", "result": 0.772, "unit": "µM"}, {"measurement": "IC50", "setting": "[35]", "result": 0.206, "unit": "µM"}, {"measurement": "IC50", "setting": "[36]", "result": 0.927, "unit": "µM"}, {"measurement": "IC50", "setting": "[37]", "result": 0.261, "unit": "µM"}]}
